Results taken from patent US20110143948A1, “MOLECULAR SIGNATURES AND BIOMARKERS ASSOCIATED WITH MELANOMA AND METHODS OF USE THEREOF” (priority 2008, published 2011).

Tested on: ncRNAs (SEQ ID NO 28-89)
Assay: ncRNA arrays of melanocytes, keratinocytes, normal skin, melanoma cell lines and patient samples
Set-up: species or system human
Details: for ncRNA array expression, patient 2: melanoma patient 2 sample compared to normal skin; for ncRNA array expression, patient 3: melanoma patient 3 sample compared to normal skin; for ncRNA array expression, patient 4: melanoma patient 4 sample compared to normal skin; for ncRNA array expression, patient 5: melanoma patient 5 sample compared to normal skin; for ncRNA array expression, patient 6: melanoma patient 6 sample compared to normal skin; for ncRNA array expression, patient 7: melanoma patient 7 sample compared to normal skin; for ncRNA array expression, patient 8: melanoma patient 8 sample compared to normal skin; for ncRNA array expression, patient 9: melanoma patient 9 sample compared to normal skin; for ncRNA array expression, patient 10: melanoma patient 10 sample compared to normal skin; for ncRNA array expression, patient 19: melanoma patient 19 sample compared to normal skin; for ncRNA array expression, patient 20: melanoma patient 20 sample compared to normal skin; for ncRNA array expression, patient 21: melanoma patient 21 sample compared to normal skin; for ncRNA array expression, patient 22: melanoma patient 22 sample compared to normal skin; for ncRNA array expression, patient 23: melanoma patient 23 sample compared to normal skin; for ncRNA array expression, patient 24: melanoma patient 24 sample compared to normal skin; for ncRNA array expression, patient 25: melanoma patient 25 sample compared to normal skin; for ncRNA array expression, patient 26: melanoma patient 26 sample compared to normal skin; for ncRNA array expression, patient 27: melanoma patient 27 sample compared to normal skin; for ncRNA array expression, patient 28: melanoma patient 28 sample compared to normal skin; for ncRNA array expression, patient 29: melanoma patient 29 sample compared to normal skin; for ncRNA array expression, patient 30: melanoma patient 30 sample compared to normal skin
Outline: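 Total RNA from melanocytes, keratinocytes, normal human skin, melanoma cell lines and melanoma patient samples was profiled on an array of >10,000 putative (>200 nt) human and mouse ncRNAs plus RefSeq mRNA probes. Expression was compared with melanocytes or normal skin, keratinocyte signatures were subtracted, and hits were validated by qRT-PCR and Northern blot.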

Substance	ncRNA array expression, patient 2	ncRNA array expression, patient 3	ncRNA array expression, patient 4	ncRNA array expression, patient 5	ncRNA array expression, patient 6	ncRNA array expression, patient 7	ncRNA array expression, patient 8	ncRNA array expression, patient 9	ncRNA array expression, patient 10	ncRNA array expression, patient 19	ncRNA array expression, patient 20	ncRNA array expression, patient 21	ncRNA array expression, patient 22	ncRNA array expression, patient 23	ncRNA array expression, patient 24	ncRNA array expression, patient 25	ncRNA array expression, patient 26	ncRNA array expression, patient 27	ncRNA array expression, patient 28	ncRNA array expression, patient 29	also measured
SEQ ID NO 82 (GAAGTCAGAAACTAAAGTTCCCTTCTAAGACAAAATCCTGCTTTGGAGAAAAAAAAAAAT; listed as DNA, chemistry not given here; listed as Homo sapiens)	−3.153	−2.943	−3.11	−2.733	−1.179	−3.133	−2.955	−3.056	−3.4499	−3.347	−3.111	−3.1409	−2.791	−3.009	−3.02	−3.428	−3.448	−3.18	−3.348	−3.301	ncRNA array expression, patient 30: −2.485
SEQ ID NO 87 (GGGATATTTTTAAGGGGAAGGGGAAGGATAGAGAGAAAGTGCAGGCAGGGCTGGGGTCTG; listed as DNA, chemistry not given here; listed as Homo sapiens)	−2.131	−1.6373	−2.999	−2.972	−2.3216	−2.468	−2.76	−1.536	−1.881	−0.8262	−1.935	−2.079	−1.312	−2	−3.011	−2.33	−2.364	−2.214	−2.17	−2.373	ncRNA array expression, patient 30: 0.7984
SEQ ID NO 79 (GTGTGTACTGATGTCAAAGACCAAATGGATGCCCCTGTGGCCAACAGTACCTTGTTAAAC; listed as DNA, chemistry not given here; listed as Homo sapiens)	0.5938	1.324	1.428	1.43	1.201	1.729	1.728	1.129	0.1808	1.52	1.494	1.271	1.165	1.445	2.943	1.206	0.7039	0.9237	0.5852	0.6174	ncRNA array expression, patient 30: 0.5148
SEQ ID NO 40 (GTTAAAGACTAAATTAGTGATTTGGGAGATCAAGCCAATGGGCTTGTCTAAAACCTAGTC; listed as DNA, chemistry not given here; listed as Homo sapiens)	1.341	1.98	2.261	0.52	1.498	0.4373	1.771	0.4625	0.3577	0.3342	0.9994	0.489	0.9011	1.125	0.452	2.17	2.021	1.467	1.364	1.245	ncRNA array expression, patient 30: 0.7348
SEQ ID NO 74 (TATATTACAGGAGTTGTCTATACGATTATAGTACCTGATTCTTTGGACATATCATTGAAC; listed as DNA, chemistry not given here; listed as Homo sapiens)	2.155	1.879	2.326	0.3239	0.8281	2.016	1.309	0.6157	2.172	−0.2091	0.8773	1.569	0.2398	1.776	0.8669	2.599	2.626	0.4062	2.421	1.974	ncRNA array expression, patient 30: −1.075
SEQ ID NO 43 (CTTAATCCACATTTGTTTTGAATTTTTCTGATTCCTATAGTACCATACTCTGATGCCTAT; listed as DNA, chemistry not given here; listed as Homo sapiens)	−1.3	−1.272	−1.462	−1.269	−1.488	−1.541	−1.511	−1.226	−1.371	−1.531	−1.239	−1.321	−1.451	−1.442	−1.2517	−1.544	−1.396	−1.339	−1.387	−1.366	ncRNA array expression, patient 30: −0.1449
SEQ ID NO 44 (AGCCAACTCACGCTTAGGGAGAACTCATACCGCCTAAATATAAAGGCAATTATATATATA; listed as DNA, chemistry not given here; listed as Homo sapiens)	−1.843	−1.705	−1.679	−1.807	−1.08	−1.932	−2.019	−1.861	−0.3103	−1.83	−1.651	−1.7	−1.029	−1.95	−1.768	−1.979	−1.501	−1.744	−1.679	−1.809	ncRNA array expression, patient 30: 0.9814
SEQ ID NO 66 (TCCTTTTTATCTTGCACTCAGATGGTATTTTTAGAGATGTTTCTTCAATCAAAACAAGAT; listed as DNA, chemistry not given here; listed as Homo sapiens)	2.553	2.044	2.799	1.983	2.127	2.319	2.869	1.498	1.587	0.7228	2.462	2.263	1.15	1.37	1.434	2.534	2.984	2.334	2.749	3.271	ncRNA array expression, patient 30: −2.558
